Patent publication US20200207759A1, “NEW PROPANAMINE DERIVATIVES FOR TREATING PAIN AND PAIN RELATED CONDITIONS” (ESTEVE PHARMACEUTICALS, S.A., priority 2017, published 2020)

How the values were obtained:
[1] = biological target: Human norepinephrine transporter (NET) (Homo sapiens, UniProt P23975); assay: Binding assay to human norepinephrine transporter (NET), [3H]-Nisoxetin; conditions: human NET enriched membranes, 5 nM [3H]-Nisoxetin; read-out: Ki (nM) NET Hum
Method: Binding Assay to Human Norepinephrine Transporter (NET).
Human norepinephrine transporter (NET) enriched membranes (5 μg) were incubated with 5 nM of radiolabeled [3H]-Nisoxetin in assay buffer containing 50 mM Tris-HCl, 120 mM NaCl, 5 mM KCl, pH 7.4.
NSB (non specific binding) was measured by adding 1 μM. After 60 min incubation at 4° C., binding reaction was terminated by filtering through Multiscreen GF/C (Millipore) presoaked in 0.5% polyethyleneimine in Vacuum Manifold Station, followed by 3 washes with ice-cold filtration buffer containing 50 mM Tris-HCl, 0.9% NaCl, pH 7.4. Filter plates were dried at 60° C. for 1 hour and 30 μl of scintillation cocktail were added to each well before radioactivity reading.

[2] = biological target: Human α2δ-1 subunit of Cav2.2 calcium channel (Homo sapiens, UniProt P54289); assay: Binding assay to human α2δ-1 subunit of Cav2.2 calcium channel, [3H]-Gabapentin; conditions: human α2δ-1 enriched membranes, 15 nM [3H]-Gabapentin; read-out: Ki (nM) alpha2delta Hum
Sequence of Human α2δ-1 subunit of Cav2.2 calcium channel (P54289 25-1103): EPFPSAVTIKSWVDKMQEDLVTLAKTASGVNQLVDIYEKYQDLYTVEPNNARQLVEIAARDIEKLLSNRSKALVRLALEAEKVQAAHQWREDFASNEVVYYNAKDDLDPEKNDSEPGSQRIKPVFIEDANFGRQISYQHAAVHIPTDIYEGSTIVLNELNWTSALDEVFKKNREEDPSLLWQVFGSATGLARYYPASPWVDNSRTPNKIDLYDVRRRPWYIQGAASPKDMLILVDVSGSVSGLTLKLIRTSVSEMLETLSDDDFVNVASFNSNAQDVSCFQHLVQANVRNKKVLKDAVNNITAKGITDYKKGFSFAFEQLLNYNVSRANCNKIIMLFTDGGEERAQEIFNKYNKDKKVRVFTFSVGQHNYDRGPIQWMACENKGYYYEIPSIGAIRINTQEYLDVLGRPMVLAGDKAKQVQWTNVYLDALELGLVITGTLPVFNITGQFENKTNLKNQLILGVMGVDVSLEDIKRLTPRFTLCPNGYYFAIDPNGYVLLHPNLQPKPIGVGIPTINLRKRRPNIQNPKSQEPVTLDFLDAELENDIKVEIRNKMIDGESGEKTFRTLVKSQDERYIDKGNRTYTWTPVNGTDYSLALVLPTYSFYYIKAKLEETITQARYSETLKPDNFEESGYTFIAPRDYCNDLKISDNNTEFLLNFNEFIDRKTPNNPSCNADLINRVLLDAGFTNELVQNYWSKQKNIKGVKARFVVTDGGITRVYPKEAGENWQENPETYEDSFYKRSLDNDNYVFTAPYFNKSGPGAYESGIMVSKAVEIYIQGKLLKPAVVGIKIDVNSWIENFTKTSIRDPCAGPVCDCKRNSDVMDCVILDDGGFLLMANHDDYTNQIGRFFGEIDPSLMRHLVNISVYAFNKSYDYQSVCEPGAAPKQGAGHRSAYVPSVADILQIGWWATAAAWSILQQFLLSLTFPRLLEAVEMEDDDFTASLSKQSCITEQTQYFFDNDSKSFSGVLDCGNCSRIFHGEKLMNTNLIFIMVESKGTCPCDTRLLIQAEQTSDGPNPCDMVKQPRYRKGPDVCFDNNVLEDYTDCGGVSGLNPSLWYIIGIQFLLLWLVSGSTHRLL
Method: Binding Assay to Human α2δ-1 Subunit of Cav2.2 Calcium Channel.
Human α2δ-1 enriched membranes (2.5 μg) were incubated with 15 nM of radiolabeled [3H]-Gabapentin in assay buffer containing Hepes-KOH 10 mM, pH 7.4.
NSB (non specific binding) was measured by adding 10 μM pregabalin. After 60 min incubation at 27° C., binding reaction was terminated by filtering through Multiscreen GF/C (Millipore) presoaked in 0.5% polyethyleneimine in Vacuum Manifold Station, followed by 3 washes with ice-cold filtration buffer containing 50 mM Tris-HCl, pH 7.4.
Filter plates were dried at 60° C. for 1 hour and 30 μl of scintillation cocktail were added to each well before radioactivity reading.
Readings were performed in a Trilux 1450 Microbeta radioactive counter (Perkin Elmer).

Sequence of Human norepinephrine transporter (NET) (P23975 whole entry): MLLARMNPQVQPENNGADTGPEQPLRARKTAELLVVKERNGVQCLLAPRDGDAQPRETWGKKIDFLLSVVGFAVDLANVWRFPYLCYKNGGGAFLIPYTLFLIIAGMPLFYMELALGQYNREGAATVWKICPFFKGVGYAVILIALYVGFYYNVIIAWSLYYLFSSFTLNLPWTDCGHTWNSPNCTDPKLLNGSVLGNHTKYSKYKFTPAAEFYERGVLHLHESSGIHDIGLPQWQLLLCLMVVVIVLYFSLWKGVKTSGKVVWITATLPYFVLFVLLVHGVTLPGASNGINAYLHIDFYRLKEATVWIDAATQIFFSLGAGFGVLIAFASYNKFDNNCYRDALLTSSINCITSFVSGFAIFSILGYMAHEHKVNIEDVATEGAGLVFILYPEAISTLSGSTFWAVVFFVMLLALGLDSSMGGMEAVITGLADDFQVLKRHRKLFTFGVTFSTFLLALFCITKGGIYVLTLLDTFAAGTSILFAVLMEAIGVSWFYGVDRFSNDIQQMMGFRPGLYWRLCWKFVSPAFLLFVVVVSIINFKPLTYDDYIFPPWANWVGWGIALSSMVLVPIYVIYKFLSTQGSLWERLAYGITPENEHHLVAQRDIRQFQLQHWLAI

Structure (SMILES)	Ki [1]	Ki [2]
CNCC[C@H](c1cccs1)N1CCc2ncc(F)cc21 [Example 26, (R)-3-(6-Fluoro-2,3-dihydro-1H-pyrrolo[3,2-b]pyridin-1-yl)-N-methyl-3-(thiophen-2-yl)propan-1-amine]	> 1000 nM	100 to 500 nM
CNCC[C@@H](c1cccs1)N1CCc2ncc(F)cc21 [Example 27, (S)-3-(6-Fluoro-2,3-dihydro-1H-pyrrolo[3,2-b]pyridin-1-yl)-N-methyl-3-(thiophen-2-yl)propan-1-amine]	> 1000 nM	100 to 500 nM
CNCC[C@H](c1ccsc1)N1CCc2ncc(F)cc21 [Example 28, (R)-3-(6-Fluoro-2,3-dihydro-1H-pyrrolo[3,2-b]pyridin-1-yl)-N-methyl-3-(thiophen-3-yl)propan-1-amine]	500 to 1000 nM	100 to 500 nM
CNCC[C@@H](c1ccsc1)N1CCc2ncc(F)cc21 [Example 29, (S)-3-(6-Fluoro-2,3-dihydro-1H-pyrrolo[3,2-b]pyridin-1-yl)-N-methyl-3-(thiophen-3-yl)propan-1-amine]	500 to 1000 nM	100 to 500 nM
CNCC[C@H](c1cccs1)N1CCc2ncc(OC)cc21 [Example 30, (R)-3-(6-Methoxy-2,3-dihydro-1H-pyrrolo[3,2-b]pyridin-1-yl)-N-methyl-3-(thiophen-2-yl)propan-1-amine]	> 1000 nM	100 to 500 nM
CNCC[C@@H](c1cccs1)N1CCc2ncc(OC)cc21 [Example 31, (S)-3-(6-Methoxy-2,3-dihydro-1H-pyrrolo[3,2-b]pyridin-1-yl)-N-methyl-3-(thiophen-2-yl)propan-1-amine]	500 to 1000 nM	≥ 3000 nM
CCc1cnc2c(c1)N([C@H](CCNC)c1cccs1)CC2 [Example 32, (R)-3-(6-Ethyl-2,3-dihydro-1H-pyrrolo[3,2-b]pyridin-1-yl)-N-methyl-3-(thiophen-2-yl)propan-1-amine]	100 to 500 nM	100 to 500 nM
CCc1cnc2c(c1)N([C@@H](CCNC)c1cccs1)CC2 [Example 33, (S)-3-(6-Ethyl-2,3-dihydro-1H-pyrrolo[3,2-b]pyridin-1-yl)-N-methyl-3-(thiophen-2-yl)propan-1-amine]	500 to 1000 nM	≥ 3000 nM
CNCC[C@H](c1cccs1)N1CC(C)(C)c2nc(C)ccc21 [Example 34, (R)-N-methyl-3-(thiophen-2-yl)-3-(3,3,5-trimethyl-2,3-dihydro-1H-pyrrolo[3,2-b]pyridin-1-yl)propan-1-amine]	> 1000 nM	< 100 nM
CNCC[C@@H](c1cccs1)N1CC(C)(C)c2nc(C)ccc21 [Example 35, (S)-N-methyl-3-(thiophen-2-yl)-3-(3,3,5-trimethyl-2,3-dihydro-1H-pyrrolo[3,2-b]pyridin-1-yl)propan-1-amine]	< 100 nM	100 to 500 nM
CNCC[C@H](c1sccc1Cl)N1CCc2ncccc21 [Example 36, (R)-3-(3-Chlorothiophen-2-yl)-3-(2,3-dihydro-1H-pyrrolo[3,2-b]pyridin-1-yl)-N-methylpropan-1-amine]	100 to 500 nM	≥ 3000 nM
CNCC[C@@H](c1sccc1Cl)N1CCc2ncccc21 [Example 37, (S)-3-(3-Chlorothiophen-2-yl)-3-(2,3-dihydro-1H-pyrrolo[3,2-b]pyridin-1-yl)-N-methylpropan-1-amine]	100 to 500 nM	≥ 3000 nM
CNCC[C@@H](c1cccs1)N1CCc2ncc(C(C)C)cc21 [Example 38, (S)-3-(6-Isopropyl-2,3-dihydro-1H-pyrrolo[3,2-b]pyridin-1-yl)-N-methyl-3-(thiophen-2-yl)propan-1-amine]	> 1000 nM	≥ 3000 nM
CNCC[C@H](c1cccs1)N1CCc2ncc(C(C)C)cc21 [Example 39, (R)-3-(6-Isopropyl-2,3-dihydro-1H-pyrrolo[3,2-b]pyridin-1-yl)-N-methyl-3-(thiophen-2-yl)propan-1-amine]	> 1000 nM	100 to 500 nM
CNCC[C@@H](c1ccc(Cl)s1)N1CCc2ncccc21 [Example 40, (S)-3-(5-Chlorothiophen-2-yl)-3-(2,3-dihydro-1H-pyrrolo[3,2-b]pyridin-1-yl)-N-methylpropan-1-amine]	500 to 1000 nM	100 to 500 nM
CNCC[C@H](c1ccc(Cl)s1)N1CCc2ncccc21 [Example 41, (R)-3-(5-Chlorothiophen-2-yl)-3-(2,3-dihydro-1H-pyrrolo[3,2-b]pyridin-1-yl)-N-methylpropan-1-amine]	> 1000 nM	500 to 3000 nM

Structure (SMILES)	Ki [1]	Ki [2]
CNCC[C@H](c1cc(C)sc1C)N1CCc2ncccc21 [Example 42, (R)-3-(2,3-Dihydro-1H-pyrrolo[3,2-b]pyridin-1-yl)-3-(2,5-dimethylthiophen-3-yl)-N-methylpropan-1-amine]	> 1000 nM	≥ 3000 nM
CNCC[C@@H](c1cc(C)sc1C)N1CCc2ncccc21 [Example 43, (S)-3-(2,3-Dihydro-1H-pyrrolo[3,2-b]pyridin-1-yl)-3-(2,5-dimethylthiophen-3-yl)-N-methylpropan-1-amine]	> 1000 nM	≥ 3000 nM
CNCC[C@H](c1ccc(C)s1)N1CCc2ncccc21 [Example 44, (R)-3-(2,3-Dihydro-1H-pyrrolo[3,2-b]pyridin-1-yl)-N-methyl-3-(5-methylthiophen-2-yl)propan-1-amine]	> 1000 nM	500 to 3000 nM
CNCC[C@@H](c1ccc(C)s1)N1CCc2ncccc21 [Example 45, (S)-3-(2,3-Dihydro-1H-pyrrolo[3,2-b]pyridin-1-yl)-N-methyl-3-(5-methylthiophen-2-yl)propan-1-amine]	> 1000 nM	500 to 3000 nM
CNCC[C@H](c1ccsc1)N1CCc2nc(C(C)C)ccc21 [Example 46, (R)-3-(5-Isopropyl-2,3-dihydro-1H-pyrrolo[3,2-b]pyridin-1-yl)-N-methyl-3-(thiophen-3-yl)propan-1-amine]	> 1000 nM	500 to 3000 nM
CNCC[C@@H](c1ccsc1)N1CCc2nc(C(C)C)ccc21 [Example 47, (S)-3-(5-Isopropyl-2,3-dihydro-1H-pyrrolo[3,2-b]pyridin-1-yl)-N-methyl-3-(thiophen-3-yl)propan-1-amine]	> 1000 nM	500 to 3000 nM
CNCC[C@H](c1cccs1)N1CCc2nc(C(C)C)ccc21 [Example 48, (R)-3-(5-Isopropyl-2,3-dihydro-1H-pyrrolo[3,2-b]pyridin-1-yl)-N-methyl-3-(thiophen-2-yl)propan-1-amine]	> 1000 nM	500 to 3000 nM
CNCC[C@@H](c1cccs1)N1CCc2nc(C(C)C)ccc21 [Example 49, (S)-3-(5-Isopropyl-2,3-dihydro-1H-pyrrolo[3,2-b]pyridin-1-yl)-N-methyl-3-(thiophen-2-yl)propan-1-amine]	> 1000 nM	≥ 3000 nM
CNCC[C@@H](c1cscc1C)N1CCc2ncccc21 [Example 50, (S)-3-(2,3-Dihydro-1H-pyrrolo[3,2-b]pyridin-1-yl)-N-methyl-3-(4-methylthiophen-3-yl)propan-1-amine]	100 to 500 nM	≥ 3000 nM
CNCC[C@H](c1cscc1C)N1CCc2ncccc21 [Example 51, (R)-3-(2,3-Dihydro-1H-pyrrolo[3,2-b]pyridin-1-yl)-N-methyl-3-(4-methylthiophen-3-yl)propan-1-amine]	> 1000 nM	≥ 3000 nM
CNCC[C@H](c1ccsc1)N1CCc2ncc(C3CC3)cc21 [Example 52, (R)-3-(6-Cyclopropyl-2,3-dihydro-1H-pyrrolo[3,2-b]pyridin-1-yl)-N-methyl-3-(thiophen-3-yl)propan-1-amine]	500 to 1000 nM	< 100 nM
CNCC[C@@H](c1ccsc1)N1CCc2ncc(C3CC3)cc21 [Example 53, (S)-3-(6-Cyclopropyl-2,3-dihydro-1H-pyrrolo[3,2-b]pyridin-1-yl)-N-methyl-3-(thiophen-3-yl)propan-1-amine]	> 1000 nM	500 to 3000 nM
CNCC[C@H](c1nccs1)N1CCc2ncccc21 [Example 54, (R)-3-(2,3-Dihydro-1H-pyrrolo[3,2-b]pyridin-1-yl)-N-methyl-3-(thiazol-2-yl)propan-1-amine]	> 1000 nM	≥ 3000 nM
CNCC[C@@H](c1nccs1)N1CCc2ncccc21 [Example 55, (S)-3-(2,3-Dihydro-1H-pyrrolo[3,2-b]pyridin-1-yl)-N-methyl-3-(thiazol-2-yl)propan-1-amine]	> 1000 nM	≥ 3000 nM
CNCC[C@H](c1cc(C)cs1)N1CCc2ncccc21 [Example 56, (R)-3-(2,3-Dihydro-1H-pyrrolo[3,2-b]pyridin-1-yl)-N-methyl-3-(4-methylthiophen-2-yl)propan-1-amine]	> 1000 nM	500 to 3000 nM
CNCC[C@@H](c1cc(C)cs1)N1CCc2ncccc21 [Example 57, (S)-3-(2,3-Dihydro-1H-pyrrolo[3,2-b]pyridin-1-yl)-N-methyl-3-(4-methylthiophen-2-yl)propan-1-amine]	> 1000 nM	500 to 3000 nM
